Results as given in US20160175328A1, “COMPOSITIONS AND TREATMENTS OF HEART FAILURE IN NON-HUMAN MAMMAL ANIMALS” (CEVA SANTE ANIMALE SA, priority 2008, published 2016).
Entries after “also recorded” stand apart in the source; their conditions may differ.

Legend:
[1] = Plasmatic potassium (kalemia) measured during the clinical studies; assay type: in vivo, dog; settings: for Low and transient hyperkalemia (5.9 to 6.4 mmol/L), cases: group on spironolactone
Experimental: The plasmatic potassium concentrations (mmol/L) were measured during the treatments. […] Only sporadic case of low or moderate hyperkalemia could be observed and these events were transient. Indeed, these hyperkalemia events could only be observed a couple of times during examinations, and some of them were present on day D1, before the beginning of the treatment.

[2] = Pharmacokinetic study with 22-14C spironolactone, rat; assay type: in vivo; settings: rats, after 4 hour oral administration of spironolactone
[3] = test system: patients affected by severe heart failure; settings: 25 mg spironolactone with ACEI, loop diuretics, sometimes digoxin; 284 dead of 822; placebo group 46%; cited from earlier work
[4] = Pharmacokinetic study with 22-14C spironolactone, monkey; assay type: in vivo; settings: monkeys, after 4 hour oral administration of spironolactone
[5] = test system: dogs in hyperaldosteronemia; assay: Model for assessing the anti-aldosterone activity (urinary Na/K after aldosterone injection); assay type: in vivo, dog; settings: for Urine flow rate: aldosterone treatment or aldosterone with spironolactone; for Urine Volume / log (Na × 10/K) / K / Na: N 15; for reversal of the effect of aldosterone on the log ([Na+]urinary×10/[K+]urinary): first 6 hours and 12 hours after dosage; for K / Na: urine
Experimental: They have been tattooed in advance for easy identification and situated in stainless steel individual boxes.
A preliminary study was performed in order to determining the ED80 value for the natriuretic effect of aldosterone on its own.
The dogs described above were allocated to different treatment groups (A, B, C, D, and E) and a rest period was left between treatments.
A negative control group A only received the pharmaceutical excipient. The positive control group B only received 3 μg/kg of aldosterone. […] 200 g food was then given immediately after treatment.
The samples were frozen and kept in the dark at approx. −80° C. […] Also, the urine was collected during the time periods ranging from T0-T6h; T6h-T12h and T12h-T24h.
After calibration and count, the quantity of aldosterone present in the sample was thus determined once counted.
The sodium and potassium contents in urines were determined using […]. […] According to this method 500 μL plasma were mixed with ethyl acetate (80/20, V/V) as solvents. […] The compounds and the internal standard (i.e. methyl-testosterone) were separated on a Kromasil C18 column.
A statistical analysis was performed with the STATGRAPHICS Plus version 4.1 software (Manugestics, Inc., Rockville, Md., U.S.A.). The results were presented such as averages±SD; p<0.05 is considered as significant.

[6] = test system: dogs affected by heart failure; assay: Clinical studies of spironolactone plus ACEI in dogs affected by heart failure; assay type: in vivo, dog; settings: for reduction of the risk of mortality: oral spironolactone 2 mg/kg/day and a ACEI vs placebo and a ACEI; for Survival probability (absence of mortality): over 15 months (14-15 months), Placebo + ACEI 74%
Experimental: Multicentre, randomised, double-blind placebo-controlled clinical studies were conducted. An example of study concerned 221 dogs, the diagnosis of heart failure relying on persisting symptoms of cardiomegaly or cardiomyopathy after a first ACEI treatment. […] The 112-dog placebo group received a placebo in combination with an ACEI (for instance benazepril chlorhydrate in a dose of 0.25 mg/kg/day).
For gauging the effects of the treatment, both groups were examined five times, i.e., on the first day of treatment (D1), then on the 84th day (D84), […], 252nd day (D252) and 336th day (D336). This examination consisted of a clinical examination of the dogs, urine and blood analyses, and a radiograph. Moreover, an echocardiograph was taken on days D1, D168 and D336.
Also, the effects of the treatment were assessed on the symptoms such as cough and mobility, as well as on the prevention of symptoms such as dyspnoea, pulmonary edema, and tolerance to effort.

[7] = Pharmacokinetic study with 22-14C spironolactone, dog; assay type: in vivo; settings: dogs, after 4 hour oral administration of spironolactone
[8] = group C, spironolactone dosage 0.8, aldosterone 3 μg/kg
[9] = group D, spironolactone dosage 2, aldosterone 3 μg/kg
[10] = group E, spironolactone dosage 8, aldosterone 3 μg/kg
[11] = group B, dosage 0, aldosterone 3 μg/kg

Question: Which “Low and transient hyperkalemia (5.9 to 6.4 mmol/L), cases” value (shortened to “Low and transient hyperkalemia”) ([1]; 2-month clinical study (4 analyses)) does the source give for `CC(=O)S[C@@H]1CC2=CC(=O)CC[C@]2(C)[C@H]2CC[C@@]3(C)[C@@H](CC[C@@]34CCC(=O)O4)[C@H]12` [Spironolactone, 7α-acetylthio-3-oxo-17α-pregn-4-ene-21,17-carbolactone] here?
Answer: 3

Question: What about the “Low and transient hyperkalemia” value ([1]; 3-month clinical study (6 analyses)) of the same molecule?
Answer: 5

Question: What about the “Low and transient hyperkalemia” value ([1]; 12-month clinical study (5 analyses)) of the same molecule?
Answer: 3

Question: And the variation in kalemia ([1]; daily dose of spironolactone of 2 mg/kg/day, dogs)?
Answer: did not cause any variation in kalemia or only low transient variations in kalemia

Question: What about the “progression of average plasmatic potassium (kalemia), FIG. 9” value ([1]; spironolactone 2 mg/kg/day and ACEI vs placebo and ACEI) of the same molecule?
Answer: stable kalemia

Question: What about the plasma radioactivity percentage [2] of the same molecule?
Answer: 66%

Question: What about the “dead (mortality) in the spironolactone group” value [3] of the same molecule?
Answer: 35%

Question: And the plasma radioactivity percentage [4]?
Answer: 33%

Question: And the ED50 ([5]; Canis lupus familiaris, read-out: ED50 (quantity of spironolactone to reach 50% of the maximum response), sigmoid Emax model, log ratio 0 to 6 hours)?
Answer: 1.09 mg/kg

Question: And the Urine flow rate [5]?
Answer: not significantly modified

Question: And the Emax-E0 ([5]; corresponded to 100% amplitude, E0 (control group) 0.527)?
Answer: 0.5625

Question: What about the “Urine Volume” value [5, 8] of the same molecule?
Answer: 148 ± 154 mL

Question: What about the “log (Na × 10/K)” value [5, 8] of the same molecule?
Answer: 0.85 ± 0.24

Question: And the “Urine Volume” value [5, 9]?
Answer: 162 ± 103 mL

Question: And the “log (Na × 10/K)” value [5, 9]?
Answer: 1.02 ± 0.21

Question: And the “Urine Volume” value [5, 10]?
Answer: 190 ± 195 mL

Question: And the “log (Na × 10/K)” value [5, 10]?
Answer: 1.14 ± 0.18

Question: What about the “elimination (excretion) of Na” value ([5]; higher dose of spironolactone, 8 mg/kg) of the same molecule?
Answer: other increases in the elimination of Na were observed; also recorded: Further increases in Na excretion

Question: What about the “Emax (maximum possible effect of spironolactone)” value ([5]; log ([Na+]urinary×10/[K+]urinary), Emax model) of the same molecule?
Answer: 1.089

Question: What about the “ED50 (quantity of spironolactone to reach 50% of the maximum response)” value ([5]; sigmoid Emax model, log ratio 0 to 6 hours) of the same molecule?
Answer: 1.08 ± 0.28 mg/kg

Question: And the natriuretic responses ([5]; spironolactone 0.8 mg/kg)?
Answer: no effect on certain dogs

Question: And the natriuretic responses ([5]; spironolactone 2 mg/kg)?
Answer: completely reversed

Question: What about the “reversal of the effect of aldosterone on the log ([Na+]urinary×10/[K+]urinary)” value ([5]; spironolactone 2 mg/kg) of the same molecule?
Answer: complete reversal

Question: What about the “reversal of the effect of aldosterone on the log ([Na+]urinary×10/[K+]urinary)” value ([5]; spironolactone 8 mg/kg) of the same molecule?
Answer: complete reversal

Question: What about the Potassium excretion ([5]; spironolactone 0.8, 2 and 8 mg/kg with aldosterone) of the same molecule?
Answer: spared up to 2 mg per kg but not after that

Question: And the “E(2mg/kg)−E0” value ([5]; spironolactone approx. 2 mg/kg)?
Answer: 0.4933

Question: What about the K [5, 8] of the same molecule?
Answer: 91.8 mmol/L

Question: What about the Na [5, 8] of the same molecule?
Answer: 67.6 ± 49.3 mmol/L

Question: What about the K [5, 9] of the same molecule?
Answer: 74.2 mmol/L

Question: And the Na [5, 9]?
Answer: 74.9 ± 40.2 mmol/L

Question: What about the K [5, 10] of the same molecule?
Answer: 88.9 mmol/L

Question: And the Na [5, 10]?
Answer: 111.1 ± 67.9 mmol/L

Question: What about the morbidity-mortality rates ([6]; 14-15 month, spironolactone 2 mg/kg/day + ACEI, against 25%) of the same molecule?
Answer: 11%

Question: What about the mortality rates ([6]; after 14-15 months, spironolactone 2 mg/kg/day + ACEI, reference group 20%) of the same molecule?
Answer: 6%

Question: What about the survival probabilities ([6]; dogs treated as of stage I of heart failure, approx. 3.5 years, spironolactone 2 mg/kg/day + ACEI, against 53%) of the same molecule?
Answer: 100%

Question: And the survival probabilities ([6]; duration of 3 years, spironolactone 2 mg/kg/day + ACEI, reference group 64%)?
Answer: 80%

Question: What about the “clinical symptoms (cough, mobility, dyspnoea, pulmonary edema, tolerance to effort, syncopes)” value ([6]; group of dogs on spironolactone vs control group) of the same molecule?
Answer: improved symptoms such as cough and mobility were observed

Question: What about the “reduction of the risk of mortality” value ([6]; over 3 years) of the same molecule?
Answer: 59%

Question: What about the “reduction of the risk of mortality” value ([6]; over 14-15 months) of the same molecule?
Answer: 65%

Question: And the “Survival probability (absence of mortality)” value ([6]; spironolactone 2 mg/kg/day + ACEI, 109 dogs)?
Answer: 91%

Question: What about the “Survival probability (absence of mortality)” value ([6]; spironolactone 2 mg/kg/day + ACEI, 109 dogs, listed as spironolactone) of the same molecule?
Answer: 91%

Question: And the ““survival” probability (absence of morbi-mortality)” value ([6]; over 15 months, spironolactone 2 mg/kg/day + ACEI, 109 dogs, Placebo + ACEI 67%)?
Answer: 84%

Question: What about the plasma radioactivity percentage [7] of the same molecule?
Answer: 76%

Question: Which “increase of the urinary levels of K” value ([5]; aldosterone on its own) does the source give for `C[C@]12CCC(=O)C=C1CC[C@@H]1[C@@H]2[C@@H](O)C[C@]2(C=O)[C@@H](C(=O)CO)CC[C@@H]12` [Aldosterone] here?
Answer: 25%

Question: And the “reduction of the elimination of Na” value ([5]; aldosterone on its own)?
Answer: approx. 65%

Question: And the Urine flow rate [5]?
Answer: not significantly modified

Question: What about the “Urine Volume” value [5, 11] of the same molecule?
Answer: 115 ± 109 mL

Question: What about the “log (Na × 10/K)” value [5, 11] of the same molecule?
Answer: 0.70 ± 0.22

Question: What about the K [5, 11] of the same molecule?
Answer: 116.6 mmol/L

Question: What about the Na [5, 11] of the same molecule?
Answer: 56.3 ± 29.9 mmol/L
